Assay results taken from patent US20110136787A1, “DIPHENYL AZEPANE, DIAZEPANE AND OXAZEPANE DERIVATIVES AND USES THEREOF” (priority 2009, published 2011).

Columns and labels:
[1] = molecular target: T1, Human Serotonin Transporter (hSERT) (Homo sapiens, UniProt P31645); test: hSERT scintillation proximity assay (SPA), competition with [3H]-Citalopram; format: binding; settings: pKi, membranes of HEK-293 cells expressing recombinant hSERT, read-out: SERT (converted)
T1 construct: expressed in transfected cells; host or cells: HEK-293, membrane preparation
T1 sequence (P31645 whole entry): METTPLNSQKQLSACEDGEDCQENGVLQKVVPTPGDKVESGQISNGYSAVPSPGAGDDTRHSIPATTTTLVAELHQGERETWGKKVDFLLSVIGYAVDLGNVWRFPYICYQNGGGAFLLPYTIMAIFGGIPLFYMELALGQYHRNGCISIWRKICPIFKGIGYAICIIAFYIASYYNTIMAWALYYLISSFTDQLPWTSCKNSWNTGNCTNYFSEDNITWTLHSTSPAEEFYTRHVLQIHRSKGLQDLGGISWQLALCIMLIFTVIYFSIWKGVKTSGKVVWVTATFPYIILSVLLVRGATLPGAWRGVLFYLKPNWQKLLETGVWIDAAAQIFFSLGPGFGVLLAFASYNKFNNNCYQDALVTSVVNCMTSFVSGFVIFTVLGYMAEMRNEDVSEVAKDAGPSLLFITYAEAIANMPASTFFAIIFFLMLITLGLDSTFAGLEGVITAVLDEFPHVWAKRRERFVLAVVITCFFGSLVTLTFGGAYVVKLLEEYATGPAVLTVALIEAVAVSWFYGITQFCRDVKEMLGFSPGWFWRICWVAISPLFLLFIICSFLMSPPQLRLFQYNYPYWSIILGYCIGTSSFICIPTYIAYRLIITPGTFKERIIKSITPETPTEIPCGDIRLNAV
Excerpt: Screening for Human Serotonin Transporter (hSERT) Antagonists Using a Scintillation Proximity Assay (SPA)
The screening assay of this example was used to determine the affinity of ligands at the hSERT transporter by competition with [^3H]-Citalopram.
Scintillation Proximity Assay (SPA) works by bringing radioligand within close proximity to the bead's scintillant to stimulate light emission. In this assay, the receptor-containing membranes were pre-coupled to the SPA beads and the binding of the appropriate radioligand to the transporter was measured. The light emission was proportional to the amount of bound radioligand. Unbound radioligand produced no signal as a result of distant proximity to scintillant (lack of energy transfer).
(§1) HEK-293 cells (Tatsumi et al., Eur. J. Pharmacol. 1997, 30, 249-258) stably expressing recombinant hSERT were maintained with media (DMEM high glucose with 10% FBS, 300 ug/ml G418 and 2 mM L-Glutamine) and incubated at 37° C. with 5% CO2. Cells are released from culture flasks using PBS for 1-2 minutes. The cells were subsequently centrifuged at 1000 g′ s for 5 minutes and resuspended in PBS prior to being used in the membrane preparation.
(§2) Cell membranes were prepared using a membrane preparation buffer of 50 mM TRIS (pH 7.4). Cell membranes were prepared from a single cube (7.5×10^9 cells total). Cells were homogenized using a Polytron (setting medium for a 4 second burst). The homogenate was then centrifuged at 48,000×g for 15 minutes, the supernatant subsequently removed and discarded, and the pellet resuspended with fresh buffer. After a second centrifugation, the pellet was re-homogenized and brought to a final volume determined during the assay. Typically, membrane portions were aliquoted in 3 mg/ml (w:v). and stored at −80° C.
For Scintillation Proximity Assay IC50/Ki determination, 50 mM Tris-HCl and 300 mM NaCl, (pH 7.4) buffers were utilized. Compounds of the invention were diluted from 10 mM to 0.1 nM FAC (10 point curves, whole log/half log dilutions) via a Beckman Biomek 2000 using a serial dilution protocol. The test compounds were then transferred (20 ul/well) and the [^3H]-Citalopram radioligand was added at 50 ul/well. Membrane and beads were prepared to a ratio of 10 ug:0.7 mg, with 0.7 mg PVT-WGA Amersham beads (Cat# RPQ0282V) added per well. 130 ul of the membrane: bead mixture was added to the assay plate. The mixtures were allowed to stand at room temperature for one hour, and were then counted on a Packard TopCount LCS, a generic Scintillation Proximity Assay counting protocol settings (Energy Range: Low, Efficiency Mode: Normal, Region A: 1.50-35.00, Region B: 1.50-256.00, Count Time (min.): 0.40, Background Subtract: none, Half-Life Correction: no, Quench Indicator: tSIS, Platemap blank subtraction: No, Cross talk reduction: Off).
(§3) The % inhibition was calculated for each compound tested [(Compound counts per minute (CPM) at maximum concentration-Non-Specific CPM)/Total CPM*100]. The concentration producing 50% inhibition (IC50) was determined using an iterative non-linear curve fitting technique with Activity Base/Xlfit using the following equation:
(§4) where max=total binding, min=non specific binding, x=concentration (M) of the tested compound and n=Hill slope. The inhibition dissociation constant (Ki) of each compound was determined according to the method of Cheng-Prusoff and then converted into negative logarithm (pKi) of the Ki.

[2] = molecular target: T2, Human Norepinephrine Transporter (hNET) (Homo sapiens, UniProt P23975); test: hNET scintillation proximity assay (SPA), competition with [3H]-Nisoxetine; format: binding; settings: pKi, membranes of HEK-293 cells expressing recombinant hNET, read-out: NET (converted)
T2 construct: expressed in transfected cells; host or cells: HEK-293 (Clone: HEK-hNET #2), membrane preparation
T2 sequence (P23975 whole entry): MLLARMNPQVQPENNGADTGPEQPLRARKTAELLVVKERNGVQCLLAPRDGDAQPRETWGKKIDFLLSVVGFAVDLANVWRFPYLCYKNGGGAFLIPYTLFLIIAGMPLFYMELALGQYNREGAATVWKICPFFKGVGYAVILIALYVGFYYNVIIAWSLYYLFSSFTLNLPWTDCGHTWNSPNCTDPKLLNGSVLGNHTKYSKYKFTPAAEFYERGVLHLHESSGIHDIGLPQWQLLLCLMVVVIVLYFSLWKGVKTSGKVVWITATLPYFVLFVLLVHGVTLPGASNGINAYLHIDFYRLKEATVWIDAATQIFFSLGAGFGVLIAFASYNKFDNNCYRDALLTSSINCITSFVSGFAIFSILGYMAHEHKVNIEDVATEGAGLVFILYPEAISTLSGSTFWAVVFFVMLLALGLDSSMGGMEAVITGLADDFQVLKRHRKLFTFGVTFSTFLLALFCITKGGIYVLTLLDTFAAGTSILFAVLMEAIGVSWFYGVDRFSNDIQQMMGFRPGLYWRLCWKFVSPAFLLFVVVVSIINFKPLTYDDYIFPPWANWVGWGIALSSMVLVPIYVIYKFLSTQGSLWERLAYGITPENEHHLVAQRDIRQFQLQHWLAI
Experimental: Screening for compounds active at Human Norepinephrine Transporter (hNET) Using a Scintillation Proximity Assay (SPA)
This assay was used to determine the affinity of ligands for the hNET transporter by competition with [^3H]-Nisoxetine. As in the hSERT assay of the above example, receptor-containing membranes were pre-coupled to the SPA beads and the binding of the appropriate radioligand to the transporter was measured. The light emission was proportional to the amount of bound radioligand, with unbound radioligand producing no signal.
as §1, with “hNET (Clone: HEK-hNET #2)” for “hSERT”, “hi” for “high”, “were” for “are”
as §2, with “3-6” for “3”
^3[H] Nisoxetine radioligand (Amersham Cat. # TRK942 or Perkin Elmer Cat. # NET1084, specific activity: 70-87 Ci/mmol, stock concentration: 1.22e-5 M, final concentration: 8.25e-9 M), and 50 mM Tris-HCl, 300 mM NaCl, (pH 7.4) buffers were used for Scintillation Proximity Assay IC50/Ki determination. Compounds of the invention were diluted from 10 mM to 0.1 nM FAC (10 point curves, whole log/half log dilutions) via a Beckman Biomek 2000 using a serial dilution protocol. The test compounds were then transferred (20 ul/well) and the radioligand was added at 50 ul/well. Membrane and beads were prepared to a ratio of […], with 0.7 mg PVT-WGA Amersham beads (Cat# RPQ0282V) added per well. […] of the membrane: bead mixture was added to the assay plate. The mixtures were allowed to stand at room temperature for one hour, and were then counted on a Packard TopCount LCS, a generic SPA counting protocol settings (Energy Range: Low, Efficiency Mode: Normal, Region A: 1.50-35.00, Region B: 1.50-256.00, Count Time (min.): 0.40, Background Subtract: none, Half-Life Correction: no, Quench Indicator: tSIS, Platemap blank subtraction: No, Cross talk reduction: Off).
as §3, with “CPM” for “counts per minute (CPM)”
as §4

Structure (SMILES)	Ki [1]	Ki [2]
c1ccc([C@H]2CCNCC[C@H]2c2ccccc2)cc1 [Compound 1, (4S,5R)-4,5-Diphenyl-azepane]	9.33 nM	124 nM
COc1ccccc1[C@H]1CCNCC[C@H]1c1ccccc1 [Compound 2, (4S,5R)-4-(2-Methoxy-phenyl)-5-phenyl-azepane]	3.98 nM	30.9 nM
c1ccc([C@H]2CCCNC[C@@H]2c2ccccc2)cc1 [Compound 3, (3S,4S)-3,4-Diphenyl-azepane]	226 nM	77.2 nM
c1ccc([C@H]2CCNCC[C@@H]2c2ccccc2)cc1 [Compound 4, (4S,5S)-4,5-Diphenyl-azepane]	468 nM	741 nM
c1ccc([C@H]2CNCCO[C@@H]2c2ccccc2)cc1 [Compound 5, (6S,7S)-6,7-Diphenyl-[1,4]oxazepane]	684 nM	133 nM
c1ccc([C@H]2CNCCO[C@H]2c2ccccc2)cc1 [Compound 6, (6S,7R)-6,7-Diphenyl-[1,4]oxazepane]		417 nM
COc1ccccc1[C@@H]1OCCNC[C@@H]1c1ccccc1 [Compound 7, (6S,7R)-7-(2-Methoxy-phenyl)-6-phenyl-[1,4]oxazepane]	398 nM	106 nM
COc1ccc([C@@H]2OCCNC[C@@H]2c2ccccc2)cc1 [Compound 8, (6S,7R)-7-(4-Methoxy-phenyl)-6-phenyl-[1,4]oxazepane]	34.7 nM	
Fc1ccccc1[C@@H]1OCCNC[C@@H]1c1ccccc1 [Compound 9, (6S,7R)-7-(2-Fluoro-phenyl)-6-phenyl-[1,4]oxazepane]	398 nM	275 nM
COc1ccc(C2CCNCCN2c2ccccc2)cc1 (centres unmarked) [Compound 13, 7-(4-Methoxy-phenyl)-1-phenyl-[1,4]diazepane]	105 nM	676 nM

Further lines, results first:

Ki [1]	Ki [2]	Structure (SMILES)
234 nM	432 nM	Fc1ccc([C@@H]2OCCNC[C@@H]2c2ccccc2)cc1 [Compound 10, (6S,7R)-7-(4-Fluoro-phenyl)-6-phenyl-[1,4]oxazepane]
785 nM	282 nM	c1ccc(C2CNCCCN2c2ccccc2)cc1 (centres unmarked) [Compound 11, 1,2-Diphenyl-[1,4]diazepane]
407 nM	335 nM	c1ccc(C2CCNCCN2c2ccccc2)cc1 (centres unmarked) [Compound 12, 1,7-Diphenyl-[1,4]diazepane]
164 nM		COc1ccc(C2CNCCCN2c2ccccc2)cc1 (centres unmarked) [Compound 14, 2-(4-Methoxy-phenyl)-1-phenyl-[1,4]diazepane]
407 nM	229 nM	Clc1ccc(C2CCNCCN2c2ccccc2)cc1 (centres unmarked) [Compound 15, 7-(4-Chloro-phenyl)-1-phenyl-[1,4]diazepane]
339 nM	263 nM	Clc1ccc(C2CNCCCN2c2ccccc2)cc1 (centres unmarked) [Compound 16, 2-(4-Chloro-phenyl)-1-phenyl-[1,4]diazepane]
170 nM	422 nM	COc1ccccc1C1CCNCCN1c1ccccc1 (centres unmarked) [Compound 17, 7-(2-Methoxy-phenyl)-1-phenyl-[1,4]diazepane]
1100 nM	2040 nM	COc1ccccc1C1CNCCCN1c1ccccc1 (centres unmarked) [Compound 18, 2-(2-Methoxy-phenyl)-1-phenyl-[1,4]diazepane]
73.3 nM	219 nM	Clc1ccccc1C1CCNCCN1c1ccccc1 (centres unmarked) [Compound 19, 7-(2-Chloro-phenyl)-1-phenyl-[1,4]diazepane]
394 nM		Clc1ccccc1C1CNCCCN1c1ccccc1 (centres unmarked) [Compound 20, 2-(2-Chloro-phenyl)-1-phenyl-[1,4]diazepane]
3630 nM		Fc1ccc(C2CCNCCN2c2ccccc2)cc1 (centres unmarked) [Compound 23, 7-(4-Fluoro-phenyl)-1-phenyl-[1,4]diazepane]
	214 nM	Fc1ccc(C2CNCCCN2c2ccccc2)cc1 (centres unmarked) [Compound 24, 2-(4-Fluoro-phenyl)-1-phenyl-[1,4]diazepane]
